The values that follow come from BindingDB's records for patent US12391669 (University Of California, 2025).

In experiment [1] the target is Serine/threonine-protein kinase/endoribonuclease IRE2 (Human, UniProt Q76MJ5). Description: Not found.
From the text: Not found

The target of experiment [2] is Serine/threonine-protein kinase/endoribonuclease IRE1 (Homo sapiens, UniProt O75460). Description: Not found.
From the text: Not found

Sequence of Serine/threonine-protein kinase/endoribonuclease IRE1 (O75460 whole entry): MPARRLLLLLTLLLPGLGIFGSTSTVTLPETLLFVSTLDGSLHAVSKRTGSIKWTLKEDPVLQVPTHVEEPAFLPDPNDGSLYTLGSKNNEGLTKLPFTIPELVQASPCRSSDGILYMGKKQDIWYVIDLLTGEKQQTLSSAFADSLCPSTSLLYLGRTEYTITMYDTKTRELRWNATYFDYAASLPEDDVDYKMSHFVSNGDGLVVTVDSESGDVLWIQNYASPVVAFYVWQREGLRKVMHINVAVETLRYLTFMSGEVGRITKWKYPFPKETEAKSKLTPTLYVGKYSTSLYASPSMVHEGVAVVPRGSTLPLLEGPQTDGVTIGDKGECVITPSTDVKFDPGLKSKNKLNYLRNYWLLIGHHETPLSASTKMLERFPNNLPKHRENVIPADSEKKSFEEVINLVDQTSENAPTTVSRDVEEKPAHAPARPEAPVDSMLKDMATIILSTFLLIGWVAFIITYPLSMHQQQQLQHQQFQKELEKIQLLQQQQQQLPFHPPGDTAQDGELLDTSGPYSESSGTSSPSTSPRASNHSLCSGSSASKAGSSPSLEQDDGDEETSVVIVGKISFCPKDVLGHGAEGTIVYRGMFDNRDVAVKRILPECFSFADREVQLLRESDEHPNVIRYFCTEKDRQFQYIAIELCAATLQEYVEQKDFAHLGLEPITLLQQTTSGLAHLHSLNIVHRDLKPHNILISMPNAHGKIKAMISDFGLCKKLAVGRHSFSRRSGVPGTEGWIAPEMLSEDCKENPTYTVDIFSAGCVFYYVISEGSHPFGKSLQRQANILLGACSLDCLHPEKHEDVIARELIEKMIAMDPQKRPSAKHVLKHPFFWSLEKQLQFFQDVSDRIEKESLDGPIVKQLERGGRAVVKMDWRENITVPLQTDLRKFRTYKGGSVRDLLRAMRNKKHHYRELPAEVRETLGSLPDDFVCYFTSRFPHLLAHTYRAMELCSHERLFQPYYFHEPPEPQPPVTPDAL
Sequence of Serine/threonine-protein kinase/endoribonuclease IRE2 (Q76MJ5 whole entry): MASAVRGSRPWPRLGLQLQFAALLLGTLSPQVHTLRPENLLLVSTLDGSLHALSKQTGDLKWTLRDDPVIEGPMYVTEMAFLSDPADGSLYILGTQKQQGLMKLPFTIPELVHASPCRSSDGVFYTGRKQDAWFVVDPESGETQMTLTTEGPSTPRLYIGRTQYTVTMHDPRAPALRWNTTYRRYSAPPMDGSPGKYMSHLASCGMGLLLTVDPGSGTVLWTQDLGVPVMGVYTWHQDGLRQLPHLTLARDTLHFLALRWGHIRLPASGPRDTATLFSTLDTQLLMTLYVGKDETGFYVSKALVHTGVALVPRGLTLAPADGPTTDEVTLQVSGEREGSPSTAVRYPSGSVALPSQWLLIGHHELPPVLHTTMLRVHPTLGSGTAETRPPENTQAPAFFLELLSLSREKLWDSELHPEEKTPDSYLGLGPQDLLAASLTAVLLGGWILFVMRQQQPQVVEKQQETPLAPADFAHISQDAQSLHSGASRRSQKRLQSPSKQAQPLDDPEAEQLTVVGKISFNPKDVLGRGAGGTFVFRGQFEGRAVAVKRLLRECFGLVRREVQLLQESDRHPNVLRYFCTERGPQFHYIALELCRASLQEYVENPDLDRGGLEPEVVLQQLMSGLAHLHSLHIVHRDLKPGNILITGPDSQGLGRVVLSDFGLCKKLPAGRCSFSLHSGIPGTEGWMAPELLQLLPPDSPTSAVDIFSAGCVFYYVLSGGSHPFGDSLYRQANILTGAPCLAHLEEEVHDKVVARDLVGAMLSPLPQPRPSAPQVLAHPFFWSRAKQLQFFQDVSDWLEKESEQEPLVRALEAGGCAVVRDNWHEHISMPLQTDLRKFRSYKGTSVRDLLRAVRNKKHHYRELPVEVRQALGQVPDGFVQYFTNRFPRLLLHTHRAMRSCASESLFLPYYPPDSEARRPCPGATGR

Consider `Cc1ccc(C(=O)NCc2ccccc2Cl)cc1Oc1ncsc1-c1ccnc(N[C@H]2CCCNC2)n1` [US12391669, Compound 20], for which the figures for the IC50 in experiment [1] and in experiment [2] were > 10 µM and 52 nM, respectively.
Consider `c1cc(Cc2nc3ccccc3[nH]2)cc(Oc2ncsc2-c2ccnc(N[C@H]3CCCNC3)n2)c1` [US12391669, Compound 35], for which the IC50 (as a rule, the concentration needed to halve the response being measured) in experiment [2] worked out at 443 nM. This lies in the sub-micromolar range.
